Where “and” joins values, the source holds several entries; their conditions need not be identical. Equal entries are not always repeated.
What was measured:
[1] = test system: NF-κB activity in HEK293 NF-κB reporter cells; experiment: NF-kB activity assay (GFP reporter, ionomycin/PMA); assay type: cell-based; settings: n=3
Protocol: Fig. 6 Application of the NR3 CG set.
After 24 h, cells were incubated with the test compounds solubilized with 0.1% DMSO in the same medium without puromycin. After 4 h incubation, ionomycin (100 ng/mL) and phorbol-12-myristat-13-acetate (PMA, 10 ng/mL) was added, and the cells were imaged for confluence and GFP expression every 90 min. over 24 h using a Tecan SPARK Cyto (Tecan). The number of GFP expressing cells was normalized to confluence in each sample. Each sample was repeated in three biologically independent experiments.

HEK293T cells [2] = experiment: Cytotoxicity: apoptosis induction (caspase-3/7 DEVD fluorogenic DNA dye); settings: HEK293T, 24 h, apoptotic cell count normalized to 0.1% DMSO, single replicates
AURKA = target: T1, AURKA (Homo sapiens, UniProt O14965); experiment: Liability panel screening by DSF: AURKA; assay type: binding; settings: DSF, 20 µM, n=2; read-out: Mean ΔTM AURKA
T1 construct: made in house
T1 sequence (O14965 1-403): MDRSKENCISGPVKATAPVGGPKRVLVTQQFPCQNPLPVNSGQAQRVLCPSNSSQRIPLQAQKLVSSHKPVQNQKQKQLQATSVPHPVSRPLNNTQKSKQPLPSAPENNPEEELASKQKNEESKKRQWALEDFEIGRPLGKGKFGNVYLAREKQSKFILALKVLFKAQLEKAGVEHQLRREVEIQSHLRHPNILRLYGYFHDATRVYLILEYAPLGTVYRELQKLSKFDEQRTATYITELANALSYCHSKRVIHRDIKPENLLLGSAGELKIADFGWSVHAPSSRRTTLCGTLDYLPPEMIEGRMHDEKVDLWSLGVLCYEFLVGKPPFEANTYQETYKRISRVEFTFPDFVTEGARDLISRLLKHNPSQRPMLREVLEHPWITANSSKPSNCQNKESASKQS
Protocol: (§1) Reference ligands are listed in the methods section.
(§2) In-house produced recombinantly expressed proteins[62] of the liability panel targets were diluted in a buffer containing 10 mM HEPES (pH 7.5) and 500 mM NaCl to a concentration of 2 µM. SYPRO Orange (Invitrogen, Carlsbad, California, USA; #S6650) as a fluorescence probe was added at a 1:1000 dilution to the proteins. […] Temperature-dependent unfolding profiles were measured on a QuantStudio™ 5 real-time PCR machine (Thermo Fisher Scientific, Waltham, Massachusetts, USA; #A28140). […] The temperature was increased 3 °C per minute to a maximum temperature of 85 °C. Experiments were run as technical duplicates. […] Data were analyzed with the internal Thermal Shift Software (version 1.4, Thermo Fisher Scientific) using the Boltzmann equitation to determine the inflection point of the transition curve. Differences in melting temperature are given as ∆Tm in K. […]
(§3) scanning fluorimetry (DSF).
(§4) a concentration of 20 µM.

HEK293T cells [3] = experiment: Cytotoxicity: necrosis induction (red fluorescent dye for permeable plasma membranes); assay type: cell-based; settings: 24 h, necrotic cell count normalized to 0.1% DMSO, single replicates;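 also: compounds applied in DMEM high glucose with 0.1% FCS and 0.1% DMSO, necrotic HEK293T cells counted by red staining of cells whose plasma membranes had become permeable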
CDK2 = target: T2, CDK2 (Homo sapiens, UniProt P24941); experiment: Liability panel screening by DSF: CDK2; assay type: binding; settings: DSF, 20 µM, n=2; read-out: Mean ΔTM CDK2
T2 construct: made in house
Protocol: as §1, §2, §3, §4

HEK293T cells [4] = experiment: Cytotoxicity: metabolic activity (WST-8 / CCK-8 assay); settings: HEK293T, 24 h, WST-8, normalized to 0.1% DMSO, single replicates
Protocol: Cells were incubated with the test compounds at the indicated concentrations solubilized with 0.1% DMSO for 24 h. Growth-rate was determined based on the change in confluence over 24 h normalized to the change in confluence of cells treated with the 0.1% DMSO control (n = 10). Metabolic activity was determined with a water-soluble tetrazolium-8 (WST-8) assay (n = 8) after 24 h treatment. Apoptotic cells were detected with a fluorogenic DNA dye coupled to the caspase-3/7 recognition sequence (DEVD) after 24 h treatment and the apoptotic cell count was normalized to 0.1% DMSO treated cells (n = 6).
HEK293T cells (German Collection of Microorganisms and Cell Culture GmbH, DSMZ; #ACC305) were cultured in DMEM high glucose, supplemented with 10% fetal calf serum (FCS), sodium pyruvate (1 mM), penicillin (100 µ/mL) and streptomycin (100 µg/mL) at 37 °C and 5% (v/v) CO2, and seeded in pre-coated (10 µg/mL collagen G solution (Merck KgaA; #L7213) for 30 min at 37 °C) 96-well plates (2 × 10^5 cells per well). After 24 h, the cells were treated with the respective NR3 CG compound candidate at the recommended concentration, bexarotene (100 µM) or doxorubicin (30 µM) as positive controls in DMEM high glucose supplemented with 0.1% FCS, penicillin (100 µ/mL), streptomycin (100 µg/mL) and 0.1% DMSO, or 0.1% DMSO alone as an untreated control. Each sample was prepared in at least four biologically independent replicates. […] Thereafter, the medium was aspirated and the cells were incubated for 3 h with 90 µL DMEM high glucose supplemented with 0.2% FCS, penicillin (100 µ/mL) and streptomycin (100 µg/mL) and additionally containing 10 µL Cell Counting Kit 8 solution (CCK-8; MedChemExpress, Monmouth Junction, New York, USA; #HY-K0301), and absorbance was measured at 1 h, 2 h and 3 h of incubation at 450 nm on a Tecan Spark Cyto to assess metabolic activity of the cells. Before drug administration, after the first medium exchange, 24 h after drug administration, and after fluorescence imaging cell confluence was assessed using the Tecan Spark Cyto, to account for changes in cell confluence due to drug administration and cell handling. Compound effects on cell confluence, apoptosis, metabolic activity and necrosis were normalized to the vehicle control of each biological replicate individually.

FGFR3 = target: T3, FGFR3 (Homo sapiens, UniProt P22607); experiment: Liability panel screening by DSF: FGFR3; assay type: binding; settings: DSF, 20 µM, n=2; read-out: Mean ΔTM FGFR3
T3 construct: made in house
Protocol: as §1, §2, §3, §4

MAPK1 = target: T4, MAPK1 (Homo sapiens, UniProt P28482); experiment: Liability panel screening by DSF: MAPK1; assay type: binding; settings: DSF, 20 µM, n=2; read-out: Mean ΔTM MAPK1
T4 construct: made in house
Protocol: as §1, §2, §3, §4

[5] = test system: ATF6 activity in Hela ATF6 reporter cells; experiment: Endoplasmic reticulum stress assay (ATF6 Renilla luciferase reporter, tunicamycin); assay type: cell-based; settings: for ATF6 activity (tunicamycin-induced endoplasmic reticulum stress): Hela ATF6 reporter cells, tunicamycin 100 ng/mL, 18 h, compounds at recommended concentrations, n = 5
Protocol: After 24 h, cells were incubated with the test compounds solubilized with 0.1% DMSO in the same medium without puromycin. After 4 h incubation, tunicamycin (100 ng/mL) was added. After another 18 h incubation, cells were assayed for renilla luminescence using DualGlo reagent (Promega) on a Tecan SPARK Cyto (Tecan). Test samples were normalized to the 0.1% DMSO control. Each sample was repeated in five biologically independent experiments.

BRPF1 = target: T5, BRPF1 (Homo sapiens, UniProt P55201); experiment: Liability panel screening by DSF: BRPF1; assay type: binding; settings: DSF, 20 µM, n=2; read-out: Mean ΔTM BRPF1
T5 construct: This panel comprised ten highly ligandable kinases and bromodomains; made in house
T5 sequence (P55201 628-732 limits assumed): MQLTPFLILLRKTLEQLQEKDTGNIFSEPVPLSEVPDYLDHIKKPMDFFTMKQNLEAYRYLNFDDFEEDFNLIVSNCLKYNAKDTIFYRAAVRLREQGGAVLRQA
Protocol: as §1, §2, §3, §4

GSK3B = target: T6, GSK3B (Homo sapiens, UniProt P49841); experiment: Liability panel screening by DSF: GSK3B; assay type: binding; settings: DSF, 20 µM, n=2; read-out: Mean ΔTM GSK3B
T6 construct: made in house

TRIM24 = target: T7, TRIM24 (Homo sapiens, UniProt O15164); experiment: Liability panel screening by DSF: TRIM24; assay type: binding; settings: DSF, 20 µM, n=2; read-out: Mean ΔTM TRIM24
T7 construct: This panel comprised ten highly ligandable kinases and bromodomains; made in house
T7 sequence (O15164 899-1004 limits assumed): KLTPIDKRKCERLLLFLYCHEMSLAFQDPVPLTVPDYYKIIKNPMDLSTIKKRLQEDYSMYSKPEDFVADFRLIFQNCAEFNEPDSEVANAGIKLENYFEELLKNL
Protocol: as §1, §2, §3, §4

HEK293T cells [6] = experiment: Cytotoxicity: growth-rate (change in confluence over 24 h); settings: normalized to 0.1% DMSO control, single replicates (n=1...)
BRD4 = target: T8, BRD4 (Homo sapiens, UniProt O60885); experiment: Liability panel screening by DSF: BRD4; assay type: binding; settings: DSF, 20 µM, n=2; read-out: Mean ΔTM BRD4
T8 construct: This panel comprised ten highly ligandable kinases and bromodomains; made in house
Protocol: as §1, §2, §3, §4

ABL1 = target: T9, ABL1 (Homo sapiens, UniProt P00519); experiment: Liability panel screening by DSF: ABL1; assay type: binding; settings: DSF, 20 µM, n=2; read-out: Mean ΔTM ABL1
T9 construct: made in house
Protocol: as §1, §2, §3, §4

CSNK1D = target: T10, CSNK1D (Homo sapiens, UniProt P48730); experiment: Liability panel screening by DSF: CSNK1D; assay type: binding; settings: DSF, 20 µM, n=2; read-out: Mean ΔTM CSNK1D
T10 construct: made in house
Protocol: as §1, §2, §3, §4

T6 sequence (P49841 whole entry, species assumed): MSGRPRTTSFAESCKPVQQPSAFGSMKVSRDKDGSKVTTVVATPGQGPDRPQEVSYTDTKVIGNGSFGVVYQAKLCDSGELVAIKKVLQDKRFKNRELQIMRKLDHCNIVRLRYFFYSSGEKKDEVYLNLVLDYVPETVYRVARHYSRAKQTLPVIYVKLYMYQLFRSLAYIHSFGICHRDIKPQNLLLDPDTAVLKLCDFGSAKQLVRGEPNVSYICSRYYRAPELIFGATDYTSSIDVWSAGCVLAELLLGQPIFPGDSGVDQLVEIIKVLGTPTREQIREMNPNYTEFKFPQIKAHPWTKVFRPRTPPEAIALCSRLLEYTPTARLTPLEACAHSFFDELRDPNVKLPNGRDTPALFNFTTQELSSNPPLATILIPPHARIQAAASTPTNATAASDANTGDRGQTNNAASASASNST
T3 sequence (P22607 23-806, species assumed): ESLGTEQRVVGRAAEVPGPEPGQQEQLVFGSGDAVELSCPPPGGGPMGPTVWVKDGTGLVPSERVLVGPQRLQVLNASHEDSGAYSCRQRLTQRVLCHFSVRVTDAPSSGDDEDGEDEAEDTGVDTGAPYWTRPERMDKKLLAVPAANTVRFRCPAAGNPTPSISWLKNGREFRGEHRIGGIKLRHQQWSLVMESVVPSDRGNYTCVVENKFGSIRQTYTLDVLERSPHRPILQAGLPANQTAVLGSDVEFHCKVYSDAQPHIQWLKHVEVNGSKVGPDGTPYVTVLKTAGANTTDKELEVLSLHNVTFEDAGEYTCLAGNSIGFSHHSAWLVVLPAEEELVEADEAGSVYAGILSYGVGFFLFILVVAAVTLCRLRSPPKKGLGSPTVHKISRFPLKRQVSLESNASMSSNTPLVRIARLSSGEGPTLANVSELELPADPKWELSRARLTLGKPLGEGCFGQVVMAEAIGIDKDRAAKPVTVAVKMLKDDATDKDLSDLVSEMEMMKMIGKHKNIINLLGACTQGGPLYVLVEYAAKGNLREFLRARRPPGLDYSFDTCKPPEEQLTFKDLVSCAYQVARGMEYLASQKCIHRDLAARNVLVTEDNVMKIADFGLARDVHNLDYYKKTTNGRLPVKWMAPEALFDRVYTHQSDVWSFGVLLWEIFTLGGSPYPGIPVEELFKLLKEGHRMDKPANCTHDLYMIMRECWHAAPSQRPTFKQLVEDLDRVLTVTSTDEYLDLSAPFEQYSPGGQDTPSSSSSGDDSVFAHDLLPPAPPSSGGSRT
T9 sequence (P00519 whole entry, species assumed): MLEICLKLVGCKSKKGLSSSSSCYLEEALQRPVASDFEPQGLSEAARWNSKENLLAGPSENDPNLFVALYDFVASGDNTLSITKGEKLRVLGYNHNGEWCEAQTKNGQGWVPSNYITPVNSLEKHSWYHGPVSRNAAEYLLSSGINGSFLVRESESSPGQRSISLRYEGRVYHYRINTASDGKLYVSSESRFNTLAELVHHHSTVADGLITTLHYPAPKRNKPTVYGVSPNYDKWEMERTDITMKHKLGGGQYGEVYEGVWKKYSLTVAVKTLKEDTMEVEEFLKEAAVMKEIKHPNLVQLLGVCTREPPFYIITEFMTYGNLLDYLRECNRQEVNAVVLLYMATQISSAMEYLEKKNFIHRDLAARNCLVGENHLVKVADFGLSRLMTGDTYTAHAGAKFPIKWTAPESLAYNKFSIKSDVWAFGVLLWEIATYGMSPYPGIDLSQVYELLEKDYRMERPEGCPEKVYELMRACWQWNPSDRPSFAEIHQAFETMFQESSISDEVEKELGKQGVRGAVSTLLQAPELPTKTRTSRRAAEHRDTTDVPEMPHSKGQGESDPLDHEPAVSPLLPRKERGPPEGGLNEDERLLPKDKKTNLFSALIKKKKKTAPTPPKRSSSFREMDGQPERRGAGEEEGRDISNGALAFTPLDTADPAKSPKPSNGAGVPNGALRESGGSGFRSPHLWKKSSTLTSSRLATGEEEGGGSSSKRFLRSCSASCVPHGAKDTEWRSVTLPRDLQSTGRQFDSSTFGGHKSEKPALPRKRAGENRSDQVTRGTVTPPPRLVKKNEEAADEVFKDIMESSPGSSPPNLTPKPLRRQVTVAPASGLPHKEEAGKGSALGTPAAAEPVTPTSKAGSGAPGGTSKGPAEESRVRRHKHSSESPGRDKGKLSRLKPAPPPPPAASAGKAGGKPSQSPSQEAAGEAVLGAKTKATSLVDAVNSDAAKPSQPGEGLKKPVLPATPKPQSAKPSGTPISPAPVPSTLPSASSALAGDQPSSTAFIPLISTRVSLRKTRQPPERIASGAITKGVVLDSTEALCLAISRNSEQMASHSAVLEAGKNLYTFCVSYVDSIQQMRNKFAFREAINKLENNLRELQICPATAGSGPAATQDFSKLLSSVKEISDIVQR
T4 sequence (P28482 whole entry, species assumed): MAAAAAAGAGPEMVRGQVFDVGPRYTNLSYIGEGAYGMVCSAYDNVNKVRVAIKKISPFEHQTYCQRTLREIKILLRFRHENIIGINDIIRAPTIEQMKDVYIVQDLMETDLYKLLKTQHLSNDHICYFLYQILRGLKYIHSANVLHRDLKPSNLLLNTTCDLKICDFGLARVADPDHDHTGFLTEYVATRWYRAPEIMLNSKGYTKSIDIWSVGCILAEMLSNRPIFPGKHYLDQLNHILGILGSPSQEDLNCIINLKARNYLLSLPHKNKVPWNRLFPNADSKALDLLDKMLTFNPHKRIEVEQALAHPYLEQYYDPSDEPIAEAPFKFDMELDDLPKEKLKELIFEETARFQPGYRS
T10 sequence (P48730 whole entry, species assumed): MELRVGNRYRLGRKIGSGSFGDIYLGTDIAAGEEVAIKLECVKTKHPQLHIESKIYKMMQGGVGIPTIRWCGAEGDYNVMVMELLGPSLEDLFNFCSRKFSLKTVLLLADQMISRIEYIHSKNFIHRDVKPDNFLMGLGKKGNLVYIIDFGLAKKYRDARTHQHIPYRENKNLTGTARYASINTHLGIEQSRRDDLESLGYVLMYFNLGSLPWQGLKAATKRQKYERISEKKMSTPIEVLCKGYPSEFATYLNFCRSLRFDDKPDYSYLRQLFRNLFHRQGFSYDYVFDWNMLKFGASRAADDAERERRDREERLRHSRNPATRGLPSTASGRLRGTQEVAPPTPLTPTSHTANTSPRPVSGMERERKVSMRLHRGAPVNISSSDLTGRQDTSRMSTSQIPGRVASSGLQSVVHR

CN(C)CCOc1ccc(/C(=C(/CCCO)c2ccccc2)c2ccc(O)cc2)cc1 [GSK5182]
Mean NFκB response ([1]; 10 µM, 1,5 h): 4124.00 GFP+-cells/confluence ∙ 1000
Mean NFκB response ([1]; 10 µM, 4,5 h): 4518.85 GFP+-cells/confluence ∙ 1000
Mean NFκB response ([1]; 10 µM, 7,5 h): 8291.63 GFP+-cells/confluence ∙ 1000
Mean NFκB response ([1]; 10 µM, 10,5 h): 18033.90 GFP+-cells/confluence ∙ 1000
Mean NFκB response ([1]; 10 µM, 13,5 h): 26386.99 GFP+-cells/confluence ∙ 1000
Mean NFκB response ([1]; 10 µM, 16,6 h): 32458.21 GFP+-cells/confluence ∙ 1000
Mean NFκB response ([1]; 10 µM, 19,5 h): 36483.54 GFP+-cells/confluence ∙ 1000
Mean NFκB response ([1]; 10 µM, 22,5 h): 40081.60 GFP+-cells/confluence ∙ 1000
Mean NFκB response ([1]; 10 µM, 3 h): 4121.32 GFP+-cells/confluence ∙ 1000
Mean NFκB response ([1]; 10 µM, 6 h): 5330.81 GFP+-cells/confluence ∙ 1000
Mean NFκB response ([1]; 10 µM, 9 h): 13339.51 GFP+-cells/confluence ∙ 1000
Mean NFκB response ([1]; 10 µM, 12 h): 22208.27 GFP+-cells/confluence ∙ 1000
Mean NFκB response ([1]; 10 µM, 15 h): 29794.15 GFP+-cells/confluence ∙ 1000
Mean NFκB response ([1]; 10 µM, 18 h): 34711.23 GFP+-cells/confluence ∙ 1000
Mean NFκB response ([1]; 10 µM, 21 h): 38030.00 GFP+-cells/confluence ∙ 1000
Mean NFκB response ([1]; 10 µM, 24 h): 41021.29 GFP+-cells/confluence ∙ 1000
Apoptosis induction [AI] (HEK293T cells [2]; 10 µM): 0.95 and 1.15 and 0.71 and 1.22 (2×) and 1.40
ΔTm at 20 µM (AURKA): -0.17 °C
Necrosis induction [NI] (HEK293T cells [3]; 10 µM): 0.56 and 0.11 and 0.30 and 0.25
ΔTm at 20 µM (CDK2): 0.68 °C
Metabolic activity [MA] (HEK293T cells [4]; 10 µM): 0.99 and 0.91 (2×) and 0.85 and 1.04 and 1.01 and 0.95 and 0.93
ΔTm at 20 µM (FGFR3): 0.62 °C
ΔTm at 20 µM (MAPK1): 0.14 °C
ATF6 activity (tunicamycin-induced endoplasmic reticulum stress) [5]: lacked this effect
activity at 10 µM ([5]; Homo sapiens, HeLa, 10 µM, single replicates n=1 to n=5, read-out: ER stress [rel. ATF6 activity]): 88%
ΔTm at 20 µM (BRPF1): -1.74 °C
ΔTm at 20 µM (GSK3B): -1.96 °C
ΔTm at 20 µM (TRIM24): -0.25 °C
Growth rate [GR] (HEK293T cells [6]; 10 µM): 0.52 and 3.08 and 0.59 and 0.82 and 0.68 and 0.29 and 0.42 and 1.20 and 1.31 and 8.43
ΔTm at 20 µM (BRD4): -2.92 °C
ΔTm at 20 µM (ABL1): 0.43 °C
ΔTm at 20 µM (CSNK1D): -0.68 °C

Oc1ccc(-c2nc3cc(O)cc(Br)c3o2)cc1 [WAY200070]
Mean NFκB response ([1]; 1 µM, 1,5 h): 2392.96 GFP+-cells/confluence ∙ 1000
Mean NFκB response ([1]; 1 µM, 4,5 h): 3166.63 GFP+-cells/confluence ∙ 1000
Mean NFκB response ([1]; 1 µM, 7,5 h): 7710.70 GFP+-cells/confluence ∙ 1000
Mean NFκB response ([1]; 1 µM, 10,5 h): 19182.75 GFP+-cells/confluence ∙ 1000
Mean NFκB response ([1]; 1 µM, 13,5 h): 27828.42 GFP+-cells/confluence ∙ 1000
Mean NFκB response ([1]; 1 µM, 16,6 h): 34347.41 GFP+-cells/confluence ∙ 1000
Mean NFκB response ([1]; 1 µM, 19,5 h): 38770.94 GFP+-cells/confluence ∙ 1000
Mean NFκB response ([1]; 1 µM, 22,5 h): 41785.25 GFP+-cells/confluence ∙ 1000
Mean NFκB response ([1]; 1 µM, 3 h): 2570.72 GFP+-cells/confluence ∙ 1000
Mean NFκB response ([1]; 1 µM, 6 h): 4284.26 GFP+-cells/confluence ∙ 1000
Mean NFκB response ([1]; 1 µM, 9 h): 13724.58 GFP+-cells/confluence ∙ 1000
Mean NFκB response ([1]; 1 µM, 12 h): 23519.76 GFP+-cells/confluence ∙ 1000
Mean NFκB response ([1]; 1 µM, 15 h): 31227.07 GFP+-cells/confluence ∙ 1000
Mean NFκB response ([1]; 1 µM, 18 h): 36753.27 GFP+-cells/confluence ∙ 1000
Mean NFκB response ([1]; 1 µM, 21 h): 40136.06 GFP+-cells/confluence ∙ 1000
Mean NFκB response ([1]; 1 µM, 24 h): 43256.26 GFP+-cells/confluence ∙ 1000
Apoptosis induction [AI] (HEK293T cells [2]; 1 µM): 0.59 and 0.50 and 0.47 and 0.71 and 1.22 and 1.35
ΔTm at 20 µM (AURKA): 0.19 °C
Necrosis induction [NI] (HEK293T cells [3]; 1 µM): 0.70 and 0.57 and 0.78 and 0.74
ΔTm at 20 µM (CDK2): 1.93 °C
Metabolic activity [MA] (HEK293T cells [4]; 1 µM): 1.01 (2×) and 0.90 and 0.92 and 0.96 and 0.97 and 1.05 and 1.00
ΔTm at 20 µM (FGFR3): 1.16 °C
ΔTm at 20 µM (MAPK1): -0.9 °C
ATF6 activity (tunicamycin-induced endoplasmic reticulum stress) [5]: failed to reduce ATF6 activity
activity at 1 µM ([5]; Homo sapiens, HeLa, 1 µM, single replicates n=1 to n=5, read-out: ER stress [rel. ATF6 activity]): 92%
ΔTm at 20 µM (BRPF1): 2.12 °C
ΔTm at 20 µM (GSK3B): 3.58 °C
ΔTm at 20 µM (TRIM24): 0.24 °C
Growth rate [GR] (HEK293T cells [6]; 1 µM): 0.70 and -0.18 and 0.97 and 1.02 and 1.09 and 1.00 and 1.07 and 0.46 and 0.96 and -0.95
ΔTm at 20 µM (BRD4): 0.55 °C
ΔTm at 20 µM (ABL1): 2.05 °C
ΔTm at 20 µM (CSNK1D): 2.57 °C
